The values that follow come from patent US11459338B2, “Heterocyclic compounds as PRMT5 inhibitors” (JUBILANT EPISCRIBE LLC, priority 2018, dated 2022).

As a reminder, the IC50 is the concentration needed to halve the response being measured. A low value points to inhibition by little substance. As usually defined, the GI50 is the concentration at which growth is held to half of that of the control.

Structures are written as SMILES. Where only a bound is given, the exact number is not on record here.

The target in one test is T1, PRMT5/MEP50 (Homo sapiens, UniProt O14744).
T1 construct: Full-length human PRMT5 (NP_006100)
Nature of the test: PRMT5/MEP50 enzyme assay on peptide substrates (3H-SAM Flashplate). As to conditions: PRMT5/MEP50 10 nM, H4 1-15aa peptide 100 nM, 3H-SAM 1 μM. The test is classed as biochemical.

The subject of a further test is Z-138 cells. As to the kind of experiment: Z-138 long term proliferation assay (Cell Titer Glo). The test is classed as cell-based. As to conditions: Homo sapiens, 192 h; Z-138 cells, cell viability, day 8; read-out: PRMT5 Z138 GI50 Day 8 μM. In a few lines:
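Z-138 cells exposed to ten-point 3-fold dilutions (top 10 μM, 0.3% DMSO) for 96 h at 37° C., 5% CO2, then re-dosed for four more days.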

T1 sequence (O14744 whole entry): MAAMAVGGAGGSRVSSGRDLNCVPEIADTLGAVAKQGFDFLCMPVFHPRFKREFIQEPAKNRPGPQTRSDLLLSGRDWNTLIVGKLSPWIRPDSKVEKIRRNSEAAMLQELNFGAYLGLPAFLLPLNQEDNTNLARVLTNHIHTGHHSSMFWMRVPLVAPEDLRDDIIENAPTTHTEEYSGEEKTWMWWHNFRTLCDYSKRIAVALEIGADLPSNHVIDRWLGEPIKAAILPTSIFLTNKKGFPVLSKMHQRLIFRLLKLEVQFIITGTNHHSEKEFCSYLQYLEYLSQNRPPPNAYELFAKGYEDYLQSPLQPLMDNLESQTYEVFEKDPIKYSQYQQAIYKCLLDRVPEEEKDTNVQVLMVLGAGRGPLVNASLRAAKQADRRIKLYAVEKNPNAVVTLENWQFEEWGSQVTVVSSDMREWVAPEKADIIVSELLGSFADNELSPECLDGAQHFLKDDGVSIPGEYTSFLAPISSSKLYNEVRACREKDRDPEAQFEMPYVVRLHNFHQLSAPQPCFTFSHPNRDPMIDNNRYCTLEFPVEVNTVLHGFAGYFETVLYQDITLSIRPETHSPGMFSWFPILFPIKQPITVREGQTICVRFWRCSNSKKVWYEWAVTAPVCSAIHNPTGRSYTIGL
T1 sequence (Q9BQA1 whole entry partner): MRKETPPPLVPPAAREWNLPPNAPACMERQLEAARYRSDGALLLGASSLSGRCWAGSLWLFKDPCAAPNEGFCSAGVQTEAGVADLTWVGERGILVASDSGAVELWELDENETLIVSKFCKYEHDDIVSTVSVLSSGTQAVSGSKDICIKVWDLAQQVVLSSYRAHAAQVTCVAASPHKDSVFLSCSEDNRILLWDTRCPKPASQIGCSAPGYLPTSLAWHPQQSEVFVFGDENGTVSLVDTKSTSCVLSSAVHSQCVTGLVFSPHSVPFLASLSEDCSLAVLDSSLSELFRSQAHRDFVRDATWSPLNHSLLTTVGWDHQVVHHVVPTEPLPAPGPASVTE

`CN(C[C@H](O)CN1CCc2ccccc2C1)C(=O)c1cn2cc(C(F)(F)F)ccc2n1` [Example 88, (R)—N-(3-(3,4-dihydroisoquinolin-2(1H)-yl)-2-hydroxypropyl)-N-methyl-6-(trifluoromethyl)imidazo[1,2-a]pyridine-2-carboxamide] displayed an IC50 on PRMT5/MEP50 of 10 to 1000 nM. Besides, the GI50 in the test on Z-138 cells was in the range of 10 to 1000 nM.
Regarding `CN(C[C@H](O)CN1CCc2ccccc2C1)C(=O)c1cn2cc(C(F)(F)F)ncc2n1` [Example 89, (R)—N-(3-(3,4-dihydroisoquinolin-2(1H)-yl)-2-hydroxypropyl)-N-methyl-6-(trifluoromethyl)imidazo[1,2-a]pyrazine-2-carboxamide], on PRMT5/MEP50, the IC50 was 10 to 1000 nM. Further, in the test with Z-138 cells, the GI50 lay in the range of 10 to 1000 nM.
For `CN(C[C@H](O)CN1CCc2ccccc2C1)C(=O)c1cc2nc(C(F)(F)F)ccn2n1` [Example 90, (R)—N-(3-(3,4-dihydroisoquinolin-2(1H)-yl)-2-hydroxypropyl)-N-methyl-5-(trifluoromethyl)pyrazolo[1,5-a]pyrimidine-2-carboxamide], the IC50 against PRMT5/MEP50 was 1000 to 5000 nM. In addition, the GI50 with Z-138 cells is over 5000 nM.
In the same order, the values of `CN(C[C@H](O)CN1CCc2ccccc2C1)C(=O)c1cn2nc(C(F)(F)F)ccc2n1` [Example 91, (R)—N-(3-(3,4-dihydroisoquinolin-2(1H)-yl)-2-hydroxypropyl)-N-methyl-6-(trifluoromethyl)imidazo[1,2-b]pyridazine-2-carboxamide] are 1000 to 5000 nM and over 5000 nM.
The corresponding values for `CN(C[C@H](O)CN1CCc2ccccc2C1)C(=O)c1cn2cc(-c3cnn(C)c3)ncc2n1` [Example 92, (R)—N-(3-(3,4-dihydroisoquinolin-2(1H)-yl)-2-hydroxypropyl)-N-methyl-6-(1-methyl-1H-pyrazol-4-yl)imidazo[1,2-a]pyrazine-2-carboxamide] are 10 to 1000 nM and 1000 to 5000 nM.
In the same order, the values of `CN(C[C@H](O)CN1CCc2ccccc2C1)C(=O)c1cn2cc(-c3ccc(=O)n(C)c3)ncc2n1` [Example 94, (R)—N-(3-(3,4-dihydroisoquinolin-2(1H)-yl)-2-hydroxypropyl)-N-methyl-6-(1-methyl-6-oxo-1,6-dihydropyridin-3-yl)imidazo[1,2-a]pyrazine-2-carboxamide] are 1000 to 5000 nM and 1000 to 5000 nM.
The compound `CN(C[C@H](O)CN1CCc2ccccc2C1)C(=O)c1cn2cc(-c3ccc(C#N)cc3)ncc2n1` [Example 95, (R)-6-(4-cyanophenyl)-N-(3-(3,4-dihydroisoquinolin-2(1H)-yl)-2-hydroxypropyl)-N-methylimidazo[1,2-a]pyrazine-2-carboxamide] showed an IC50 on PRMT5/MEP50 of 10 to 1000 nM. Further, the GI50 in the test on Z-138 cells lay in the range of 10 to 1000 nM.
`O=C(NCC(O)CNC1Cc2ccccc2C1)c1cn2cc(C3CCOCC3)ccc2n1` (stereo not shown) [Example 97, N-(3-((2,3-dihydro-1H-inden-2-yl)amino)-2-hydroxypropyl)-6-(tetrahydro-2H-pyran-4-yl)imidazo[1,2-a]pyridine-2-carboxamide] gave an IC50 at PRMT5/MEP50 of 10 to 1000 nM. In addition, the GI50 in the test with Z-138 cells lay in the range of 10 to 1000 nM.
On to `CC(=O)N1CCC(c2ccc3nc(C(=O)NCC(O)CNC4Cc5ccccc5C4)cn3c2)CC1` (stereo not shown) [Example 98, 6-(1-acetylpiperidin-4-yl)-N-(3-((2,3-dihydro-1H-inden-2-yl)amino)-2-hydroxypropyl)imidazo[1,2-a]pyridine-2-carboxamide], for which, on PRMT5/MEP50, the IC50 was 10 to 1000 nM. Moreover, the concentration for 50% growth inhibition (GI50) in the test on Z-138 cells was 10 to 1000 nM.
Compound `Cn1ccc(-c2ccc3nc(C(=O)NCC(O)CNC4Cc5ccccc5C4)cn3c2)cc1=O` (stereo not shown) [Example 99, N-(3-((2,3-dihydro-1H-inden-2-yl)amino)-2-hydroxypropyl)-6-(1-methyl-2-oxo-1,2-dihydropyridin-4-yl)imidazo[1,2-a]pyridine-2-carboxamide] yielded an IC50 against PRMT5/MEP50 of 10 to 1000 nM. In addition, in the test on Z-138 cells, the GI50 lay in the range of 10 to 1000 nM.
`O=C(NCC(O)CN1CCc2ccccc2C1)c1cn2c(n1)CCCC2` (stereo not shown) [Example 101, N-(3-(3,4-dihydroisoquinolin-2(1H)-yl)-2-hydroxypropyl)-5,6,7,8-tetrahydroimidazo[1,2-a]pyridine-2-carboxamide] came in with an IC50 at PRMT5/MEP50 of 1000 to 5000 nM. Moreover, in the test with Z-138 cells, the GI50 is over 5000 nM.
